From ChEMBL document CHEMBL6182872, “Synthesis of Benzo[h]quinoline derivatives and evaluation of their insecticidal activity against Culex pipiens L. larvae” (Eur J Med Chem, 2025)
Values after ≈ are worked out from the molar mass of the structure shown.

System: Culex pipiens
Assay: Toxicity in Culex pipiens at third larval instar measured after 24 hrs
Assay type: organism-based

SMILES	LC50 [mg/L]
CC(=O)N(C(C)=O)N1C(=O)/C(=C/c2cc3ccc4ccccc4c3nc2Cl)C=C1c1ccc(C)cc1	329 (≈ 663 µM)
Cc1ccc(C2=C/C(=C\c3cc4ccc5ccccc5c4nc3Cl)C(=O)N2NC(=O)c2ccccc2)cc1	4.9 (≈ 9.5 µM)
COc1ccc(/C=N/NC(=O)/C(=C/c2cc3ccc4ccccc4c3nc2Cl)CC(=O)c2ccc(C)cc2)cc1OC	202 (≈ 349 µM)
Cc1ccc(C(=O)C/C(=C\c2cc3ccc4ccccc4c3nc2Cl)C(=O)NNC(=O)CCC(=O)NNC(=O)/C(=C/c2cc3ccc4ccccc4c3nc2Cl)CC(=O)c2ccc(C)cc2)cc1	136 (≈ 144 µM)
Cc1ccc(C(=O)C/C(=C\c2cc3ccc4ccccc4c3nc2Cl)C(=O)N/N=C/c2ccccc2O)cc1	29.3 (≈ 54.9 µM)
CC(=O)NNC(=O)/C(=C/c1cc2ccc3ccccc3c2nc1Cl)CC(=O)c1ccc(C)cc1	116 (≈ 245 µM)
CCCCCCCCCCCC(=O)NN1C(=O)/C(=C/c2cc3ccc4ccccc4c3nc2Cl)C=C1c1ccc(C)cc1	0.4 (≈ 0.673 µM)
CCOP(=S)(OCC)Oc1nc(Cl)c(Cl)cc1Cl [CHLORPYRIFOS]	272 (≈ 776 µM)
CC(=O)NN1C(=O)/C(=C/c2cc3ccc4ccccc4c3nc2Cl)C=C1c1ccc(C)cc1	97.5 (≈ 215 µM)
Cc1ccc(C2=C/C(=C\c3cc4ccc5ccccc5c4nc3Cl)C(=O)N2NC(=O)CCl)cc1	23.9 (≈ 48.9 µM)
Cc1ccc(C(=O)C/C(=C\c2cc3ccc4ccccc4c3nc2Cl)C(=O)NN)cc1	86.4 (≈ 201 µM)
